Laboratory results: a melting point compilation (Tetko et al.; mined from patent text by program, amines drawn as free bases though some values may be those of a salt)

SMILES	melting point [°C]
Cc1cc(-c2nc(C(F)(F)F)cn2-c2ccc(S(C)(=O)=O)c(F)c2)ccc1-c1cscn1	197 to 198
O=C1Nc2ccccc2Sc2ccccc21	258 to 259
CCNc1nc(N=[N+]=[N-])nc(NC(C)C(F)(F)F)n1 (stereo unspecified)	69 to 75
CN1Cc2cccnc2N(c2ccc(F)cc2)C1=O	212 to 213
CS(=O)(=O)Nc1cccc(C=C2c3ccccc3CCc3ccccc32)c1	66.3
CN(C(=O)c1cccs1)c1cccc(-c2nc(=O)c3ccccc3s2)n1	192 to 193
COc1ncccc1-c1cccn2nc(Cl)nc12	218 to 219
CCCCOCc1cc2c3ccccc3[nH]c(=O)n2n1	170 to 172
COC(=O)c1ccccc1NC(=O)N(C)CCO	90
CN1C(=O)N(C)C(O)C1O (stereo unspecified)	140
COc1cc(Nc2c(C#N)cnc3cc(-c4ccc(C=O)cc4)ccc23)c(Cl)cc1Cl	248 to 251
Cc1ccc(N2CCN(Cc3c[nH]c4ncccc34)CC2)cc1	220 to 222
COc1ccc2c(c1)C(=O)c1ccccc1C2	94.5 to 97.5
NC(=O)C1CCc2[nH]c3ccc(Cl)c(Cl)c3c2C1 (stereo unspecified)	246 to 247
COC(=O)[C@@H]1CCN1S(=O)(=O)c1ccc(Cl)c(COc2cccc3c(-n4ccnc4)cc(C)nc23)c1Cl	80
Oc1cccc2c1CC(n1cc[nH]c1=S)CC2 (stereo unspecified)	274 to 276
CC(C)(C(=O)O)c1cn2nc(Cl)ccc2n1	159 to 161
CN(C)S(=O)(=O)c1ccc2c(c1)S(=O)(=O)NC(C(F)(F)F)=N2	240 to 242
c1ccc(Cn2nc(-c3ccncc3)nc2-c2ccncc2)cc1	136 to 138
Cc1ccc(N)c(C)c1CO	85
O=C(c1ccccc1)c1cccnc1-c1nc(NC2CCCCC2)c2ccccc2n1	204 to 208
CN(C)CCOc1ccc2oc(-c3cc4ccccc4cn3)cc(=NO)c2c1	203 to 205
CO/N=C/c1ccc2c(c1Cn1ccnc1)OCO2	102
Cc1cc(=O)c(C(=O)Oc2ccccc2)nn1-c1ccc(Cl)cc1	140 to 146

SMILES	melting point [°C]
CC(=O)Nc1ccc(-c2ccc3nc(-c4cccnc4N)n(-c4ccc(CN)cc4)c3n2)cc1	245 to 248
Cc1noc(-c2ncn3c2[C@@H]2CCCN2C(=O)c2c(Br)cccc2-3)n1	237 to 238
COC(=O)c1cc(-c2ccc(OC)c(F)c2)nn(CC2CCCC2)c1=O	56 to 66
CS(=O)(=O)C(=C1CN(C(c2ccccc2)c2ccccc2)C1)c1cccc(C(F)(F)F)c1	178
CC(=O)OCC1Cc2c(c3cccnc3n(-c3ccccc3)c2=O)O1 (stereo unspecified)	207 to 208
O=C(O)c1ccc(CCCC2SCC(=O)N2CCC2(O)CCCCCC2)cc1 (stereo unspecified)	146 to 148
Cc1cccc2c1ncn2Cc1oc2ccc(Br)cc2c(=O)c1-c1ccccc1	176 to 179
CC(C)NC(=O)c1cccc(-c2ccnc3c(C(=O)c4cccs4)cnn23)c1	218 to 220
COCn1c(-c2nc3c(OC)ccc(N4CCOCC4)c3s2)nc2ccc(N3CCC(O)CC3)nc21	120 to 130
Clc1cccc(Nc2ccc(Oc3ccccc3)cc2)n1	69 to 73
COc1cccc(C2(CC(=O)O)C(=O)Nc3ccc(Cl)cc32)c1OC (stereo unspecified)	235
CCCOc1cc(OCCC)c2c(C)c(CCO)c(=O)oc2c1	106 to 108
CCOC(=O)c1cnc2nc(C=CC(=O)O)c(OCC)cc2c1O	> 280
Ic1ccc(SSc2ccc(I)c3ccccc23)c2ccccc12	129 to 131
COc1ccc(-c2ccc(C(=O)O)cn2)cc1	252 to 253
O=C(c1ccc(F)cc1)C1CCN(CCCn2c(=O)[nH]c3ccc(Cl)cc32)CC1	157
COCC1(CCCCCCCCCCCCC2(C(=O)O)CC2)CC1	36.4 to 37.6
Cc1cc(-c2c3ccccc3c(Br)c3sc(C)c(C)c23)cc(C)c1OS(=O)(=O)c1ccc(C(=O)O)c(O)c1	> 225
CCC(=O)c1cc(Cl)c(Cl)c2c1OCC(C(=O)O)O2 (stereo unspecified)	229 to 231
O=C(O)COCOc1cc(Cl)cc(Cl)c1	79 to 82
CC(C)(O)C(C(=O)O)c1ccc(Cl)cc1 (stereo unspecified)	65
O=c1c(-c2ccccc2)c(-c2ccccc2)oc2cc(OCC(O)CNC3CC3)ccc12 (stereo unspecified)	135 to 137
COCNC(=O)C1C(c2ccc(F)cc2)CC2CCC1N2C (stereo unspecified)	140 to 142
COc1cc(OS(=O)(=O)OC(F)(F)F)c2c(=O)c3ccc(Cl)cc3n(C)c2c1	234 to 236

SMILES	melting point [°C]
Cc1ccc(Cl)c(Nc2ccccc2-c2nnc(N)s2)c1Cl	219 to 226
CSc1nn2c(N)cc(C)nc2c1S(=O)(=O)c1ccccc1	> 230
NNC(=O)c1c(OCC(F)(F)F)cccc1OCC(F)(F)F	153 to 154
Cc1cc(-c2cnn(-c3ccccc3)c2)ccc1OC=C1C=CC=CC1n1nnn(C)c1=O (stereo unspecified)	152 to 153
CNC(N)=C(CCSCc1csc(CN(C)C)n1)[N+](=O)[O-]	130 to 132
CCn1c2ccc(C=O)cc2c2ccc3ccccc3c21	135 to 140
CC1(C)COC(=O)N1c1nc(-c2sc(C#N)cc2Br)cs1	230 to 234
COc1ccccc1C(=O)Nc1ccc(-n2nc(C(F)(F)F)cc2C(F)(F)F)cc1	100 to 102
Cc1c(C(=O)NC2CCCCC2)nc(-c2ccccc2Cl)n1-c1ccc([N+](=O)[O-])cc1	217 to 220
COc1ccc(C(=O)Nc2ccc(F)c(F)c2)cc1NS(=O)(=O)c1cc(Cl)cc(Cl)c1	228 to 231
COc1ccc(C)cc1NC(=O)Nc1ccc(N2CCN(C(=O)C3CCCCC3C)CC2)cc1 (stereo unspecified)	208 to 209
COc1cc(OC)c2c(=O)[nH]c(-c3ccc(O)c(CCO)c3)nc2c1	249 to 250
CC(=O)N1CCC(Oc2c(F)c(F)c(F)c(F)c2F)CC1	60 to 65
CCCCCCCc1cnc(-c2ccc(C(=O)Oc3ccc(-c4ncc(CCCCC)cn4)cc3)cc2)nc1	97
CSC(=S)N1Cc2c(c3ccccc3n2C)CC1C(=O)O (stereo unspecified)	212 to 213
CCOC(=O)C1(C(=O)OCC)CCC2(NCCc3cc(OC)c(OC)cc32)C(C2c3cc(OC)c(OC)cc3CCN2CC)C1 (stereo unspecified)	146 to 147
COc1cc(C(=O)Nc2ccccc2C(c2ccc(O)cc2)c2ccc(O)cc2)ccc1[N+](=O)[O-]	129 to 131
CSc1c(C(Cc2ccccc2)C(=O)O)cc(C)c2c3ccccc3n(Cc3ccccc3)c12 (stereo unspecified)	199 to 200
Cc1c(C(=O)Nc2ccc(N3CCC(N4CCOCC4)CC3)c(Br)c2)cnn1-c1ccc(Cl)cc1	205 to 210
CC(C)(C)OC(=O)C1CCN(Sc2ccncc2)CC1	71 to 72
CC(=O)Nc1ccc(C=C2CCc3ncc(C)cc3C2=O)cc1	226 to 228
COc1cccc(NC(=S)NC(NC(=O)c2ccc(C)cc2)C(F)(F)F)c1 (stereo unspecified)	206 to 208
CN(C)C=C1C(=O)N(c2cccc(F)c2)c2ccccc21	87 to 88.5
